Reference: patent US20200405666A9, “TREATMENT OF SYMPTOMS ASSOCIATED WITH FEMALE GASTROPARESIS” (priority 2011, published 2020)

Tested on: symptoms of diabetic gastroparesis
Assay: Phase 2 randomized, double-blind, placebo-controlled study METO-IN-002 of metoclopramide nasal spray: symptom scores (mGCSI-DD, GCSI-DD, PAGI-SYM, other endpoints)
Format: in vivo, human
Set-up: key to Stomach Fullness / Early Satiety / Feeling Full / Loss of Appetite / Bloating / Stomach Larger / Upper Abdominal Pain / Upper Abdominal Discomfort / mGCSI-DD (primary endpoint) / Nausea / Retching / Vomiting / Sheehan Disability Scales / Investigator Assessment of Overall Gastroparesis Severity / Subject Assessment of Overall Gastroparesis Severity / Investigator Assessment of Overall Treatment Effect / Subject Assessment of Overall Treatment Effect / Days w/o Vomiting / Days w/o Nausea / Days w/o Vomiting or Nausea / Days w/o Upper Abdominal Pain or Upper Abdominal Discomfort / Nausea Response by Response Threshold / GCSI-DD / Days w/o Vomiting or Retching &, No Use of Rescue Medication / Nausea Responder Analysis / Overall Severity of Gastroparesis Symptoms - Subject / PAGI-SYM Questionnaire / Nausea/Vomiting (listed under PAGI-SYM Questionnaire) / Bloating (listed under PAGI-SYM Questionnaire) / Upper Abdominal Pain/Discomfort (listed under PAGI-SYM Questionnaire) / Early Satiety (listed under PAGI-SYM Questionnaire): A=Favors Active; P=Favors Placebo
Conditions: for mGCSI-DD (primary endpoint) / Bloating / Bloating (listed under PAGI-SYM Questionnaire) / Days w/o Nausea / Days w/o Upper Abdominal Pain or Upper Abdominal Discomfort / Days w/o Vomiting / Days w/o Vomiting or Nausea / Days w/o Vomiting or Retching &, No Use of Rescue Medication / Early Satiety / Early Satiety (listed under PAGI-SYM Questionnaire) / Feeling Full / GCSI-DD / Investigator Assessment of Overall Gastroparesis Severity / Investigator Assessment of Overall Treatment Effect / Loss of Appetite / Nausea / Nausea Responder Analysis / Nausea Response by Response Threshold / Nausea/Vomiting (listed under PAGI-SYM Questionnaire) / Overall Severity of Gastroparesis Symptoms - Subject / PAGI-SYM Questionnaire / Retching / Sheehan Disability Scales / Stomach Fullness / Stomach Larger / Subject Assessment of Overall Gastroparesis Severity / Subject Assessment of Overall Treatment Effect / Upper Abdominal Discomfort / Upper Abdominal Pain / Upper Abdominal Pain/Discomfort (listed under PAGI-SYM Questionnaire) / Vomiting: Week 4, vs placebo
Experimental: Example 1: A Multicenter, Randomized, Double-Blind, Placebo-Controlled, Parallel Group, Dose-Ranging Clinical Study to Evaluate the Efficacy and Safety of Metoclopramide Nasal Spray Solution in Diabetic Subjects with Gastroparesis
The objectives of this study were to evaluate the safety and the effectiveness of two doses of metoclopramide nasal spray solution, 10 mg and 14 mg, compared to placebo in reducing the symptoms of diabetic gastroparesis and to assess the plasma concentrations of two doses of metoclopramide nasal spray in subjects with diabetic gastroparesis following a single dose and at steady state. The aforementioned dosages for the treatment and control of gastroparesis were administered before meals and/or before bed time. Subjects who met the entry criteria after the Washout Period (Day −7 to Day −1) were randomized using an IVRS, to metoclopramide nasal spray 10 mg, 14 mg, or placebo, in roughly equal numbers (approximately 1:1:1) using a predetermined randomization schedule employing permuted blocks. Randomization was preformed centrally.
Metoclopramide nasal spray solution, 200 mg/mL base (as monohydrochloride monohydrate) is a clear colorless to pale-yellow aqueous solution manufactured for Evoke Pharma. The metoclopramide nasal spray was packaged in a 10 mL amber glass vial mounted with a metered nasal spray pump. The metered dose vial delivered a 50 μL or 70 μL spray (10 mg or 14 mg of metoclopramide base respectively) with each actuation. One 10 mL vial contained sufficient metoclopramide nasal spray to deliver 120 doses of 10 mg or 14 mg.
A vehicle control was used as the placebo for metoclopramide nasal spray solution. The placebo spray was packaged in a 10 mL amber glass vial mounted with a metered nasal spray pump. The metered dose vial delivered a 50 μL spray with each actuation. One 10 mL vial contained sufficient placebo to deliver 120 doses. The delivery of either a 50 μL or 70 μL spray is indistinguishable to the subject or study staff.
A 7-day Washout Period preceded randomization. During this time, and for the duration of the study, subjects were asked to discontinue use of all medications that are known to ameliorate or exacerbate symptoms associated with diabetic gastroparesis. Subjects were trained on the use of an interactive voice response system (IVRS) to record the severity of nine gastroparesis symptoms of the GCSI-DD and additional symptoms such as: severity of abdominal pain and abdominal discomfort, number of hours of nausea, number of episodes of vomiting, and overall severity of gastroparesis symptoms in a daily diary. The IVRS was used during the treatment period for self-reported assessments. Subjects completed these diary assessments via the IVRS each evening.
Subjects with a mean GCSI-DD total score of <2.0 or >4.0 during the 7-day Washout Period were excluded from the study.
At the Randomization Visit (Day 0), the Patient Assessment of Upper Gastrointestinal Disorders Symptoms (PAGI-SYM) Questionnaire, and disability questionnaires were administered to the subject and the Investigator and subject assessed overall gastroparesis symptom severity (OGS) prior to taking study drug. Subjects began taking the study drug at the clinical site with a single dose on Day 0. The subjects returned to the clinic for safety and efficacy evaluations on Visits 4, 5, 6, and 7 (Days 7, 14, 21, and 28).
At each scheduled study visit to the clinical study site, the IVRS daily diary compliance was reviewed. In addition, at Visit 5 (Day 14), the PAGI-SYM Questionnaire was administered to the subject and the Investigator and subject assessed OGS severity. At the Final Visit (Day 28) subjects took their last dose of study drug at the clinical site and returned their vial of unused/remaining study drug. The subject completed the PAGI-SYM, and disability questionnaires. The Investigator and subject assessed OGS and overall treatment effect (OTE). […]

[1] = males, 10 mg IN four times daily
[2] = males, 10 mg IN four times daily, listed as Metoclopramide
[3] = males, 14 mg IN four times daily

Structure (SMILES): CCN(CC)CCNC(=O)c1cc(Cl)c(N)cc1OC [metoclopramide, -amino-5-chloro-N-(2-(diethylamino)ethyl)-2-methoxybenzamide]
- mGCSI-DD (primary endpoint) (females, 14 mg IN four times daily): A (p < 0.05)
- Mean mGCSI-DD total score at Week 4 (females, 14 mg IN four times daily, listed as Metoclopramide): 1.7
- Difference of Least Square Means, mGCSI-DD change from Baseline to Week 4 (females, 14 mg IN vs Metoclopramide 10 mg): −0.00
- Difference of Least Square Means, mGCSI-DD change from Baseline to Week 4 (females, 14 mg IN vs placebo): −0.38
- Symptoms that showed a positive trend (male subjects, 11 symptoms collected): 1 of 11
- Statistically significant improvement in mGCSI-DD score (in words) (males, 10 mg IN and 14 mg IN arms, Baseline to Week 4): did not experience significant improvement
- Mean Change from Baseline to Week 4 in mGCSI-DD [1]: −1.2 (−1.2)
- Mean mGCSI-DD total score at Week 4 [1]: 1.6 (1.6)
- Bloating [1]: P
- Bloating (listed under PAGI-SYM Questionnaire) [1]: P
- Days w/o Nausea [1]: P
- Days w/o Upper Abdominal Pain or Upper Abdominal Discomfort [1]: P
- Days w/o Vomiting [1]: P
- Days w/o Vomiting or Nausea [1]: P
- Days w/o Vomiting or Retching &, No Use of Rescue Medication [1]: A
- Early Satiety [1]: P
- Early Satiety (listed under PAGI-SYM Questionnaire) [1]: P
- Feeling Full [1]: P
- GCSI-DD [1]: P
- Investigator Assessment of Overall Gastroparesis Severity [1]: P
- Investigator Assessment of Overall Treatment Effect [1]: A
- Loss of Appetite [1]: P
- Nausea [1]: P
- Nausea Responder Analysis [1]: P
- Nausea Response by Response Threshold [1]: P
- Nausea/Vomiting (listed under PAGI-SYM Questionnaire) [1]: P
- Overall Severity of Gastroparesis Symptoms - Subject [1]: A
- PAGI-SYM Questionnaire [1]: P
- Retching [1]: P
- Sheehan Disability Scales [1]: A
- Stomach Fullness [1]: P
- Stomach Larger [1]: P
- Subject Assessment of Overall Gastroparesis Severity [1]: P
- Subject Assessment of Overall Treatment Effect [1]: A
- Upper Abdominal Discomfort [1]: P
- Upper Abdominal Pain [1]: P
- Upper Abdominal Pain/Discomfort (listed under PAGI-SYM Questionnaire) [1]: P
- Vomiting [1]: A
- mGCSI-DD (primary endpoint) [1]: P
- Mean Change from Baseline to Week 4 in mGCSI-DD [2]: −1.2
- Mean mGCSI-DD total score at Week 4 [2]: 1.6
- Difference of Least Square Means, mGCSI-DD change from Baseline to Week 4 (males, 10 mg IN vs placebo): 0.18
- Mean Change from Baseline to Week 4 in mGCSI-DD [3]: −0.9
- Mean mGCSI-DD total score at Week 4 [3]: 1.7 (1.7)
- Bloating [3]: P
- Bloating (listed under PAGI-SYM Questionnaire) [3]: P (p < 0.05)
- Days w/o Nausea [3]: P
- Days w/o Upper Abdominal Pain or Upper Abdominal Discomfort [3]: P (p < 0.05)
- Days w/o Vomiting [3]: P
- Days w/o Vomiting or Nausea [3]: P
- Days w/o Vomiting or Retching &, No Use of Rescue Medication [3]: A
- Early Satiety [3]: P (p < 0.05) and P
- Early Satiety (listed under PAGI-SYM Questionnaire) [3]: P (p < 0.05)
- Feeling Full [3]: P
- GCSI-DD [3]: P
- Investigator Assessment of Overall Gastroparesis Severity [3]: P
- Investigator Assessment of Overall Treatment Effect [3]: P
- Loss of Appetite [3]: P (p < 0.05)
- Nausea [3]: P
- Nausea Responder Analysis [3]: P
- Nausea Response by Response Threshold [3]: P
- Nausea/Vomiting (listed under PAGI-SYM Questionnaire) [3]: P
- Overall Severity of Gastroparesis Symptoms - Subject [3]: A
- PAGI-SYM Questionnaire [3]: P
- Retching [3]: P
- Sheehan Disability Scales [3]: A
- Stomach Fullness [3]: P
- Stomach Larger [3]: P (p < 0.05)
- Subject Assessment of Overall Gastroparesis Severity [3]: P
- Subject Assessment of Overall Treatment Effect [3]: P
- Upper Abdominal Discomfort [3]: P
- Upper Abdominal Pain [3]: P
- Upper Abdominal Pain/Discomfort (listed under PAGI-SYM Questionnaire) [3]: P
- Vomiting [3]: A
- mGCSI-DD (primary endpoint) [3]: P
- Mean mGCSI-DD total score at Week 4 (males, 14 mg IN four times daily, listed as Metoclopramide): 1.7
- Difference of Least Square Means, mGCSI-DD change from Baseline to Week 4 (males, 14 mg IN vs Metoclopramide 10 mg): 0.14
- Difference of Least Square Means, mGCSI-DD change from Baseline to Week 4 (males, 14 mg IN vs placebo): 0.32
